Assay results published in US20180369195A1, “COMBINATION THERAPY FOR TREATMENT OF MELANOMA” (The Regents of the University of California, priority 2015, published 2018).

Tested on: Wnt signaling pathway
Assay: Immunofluorescence of tumor xenograft sections for Wnt signaling pathway
Assay type: in vivo, human
Details: 1-benzyl I3C treated tumor xenografts vs DMSO
Method: Approximately 1 million G361 melanoma cells in a total volume of 0.1 ml of Matrigel were injected subcutaneously into each lateral flank of NIH III athymic nude mice. The resulting tumors were allowed to grow to a mean starting volume of 146±10 mm^3. The animals were then randomized into two groups; a vehicle control group that was treated with DMSO and an I3C treated group that were injected daily with 200 mg/kg body weight of I3C. The resulting tumor volumes were measured every other day for four weeks using calipers. The tumor volumes were calculated using the standard formula: […], and changes in tumor volumes were calculated using the formula: 100+{(Tf−Ti)/Ti×100}, where Tf is the final mean tumor volume and Ti is the initial mean tumor volume. At terminal sacrifice, tumor xenografts were harvested, and a portion of each tumor was fixed in 4% para-formaldehyde for 1 hour at room temperature, followed by a phosphate-buffered saline (PBS) wash and subsequently immersed in […] overnight at 4° C. The resulting tissues were embedded in OCT and 10 μm thin sections were taken for immunofluorescence studies.

Structure (SMILES): OCc1cn(Cc2ccccc2)c2ccccc12 [1-benzyl I3C, 1-benzyl indole-3-carbinol]
- effect on Wnt signaling pathway in tumor xenograft sections: mimicked the cell culture data
